# According to patent publication US8829193B2, “PIM kinase inhibitors and methods of their use” (Novartis AG, priority 2008, dated 2014):
# Tests used:
# Pim1 kinase = Pim1 kinase (Homo sapiens (Human), UniProt P11309); experiment: Pim1 ATP depletion assay; type: biochemical; conditions: 20 μM ATP, 40 μM BAD peptide, 2.5 nM PIM1
# Description: (§1) The activity of PIM1 is measured using a luciferase-luciferin based ATP detection reagent to quantify ATP depletion resulting from kinase-catalyzed phosphoryl transfer to a peptide substrate. Compounds to be tested are dissolved in 100% DMSO and directly distributed into white 384-well plates at 0.5 μl per well. […] After 15 minutes, 10 μl of 40 μM ATP in assay buffer is added. Final assay concentrations are 2.5 nM PIM1, 20 μM ATP, 40 μM BAD peptide and 2.5% DMSO. The reaction is performed until approximately 50% of the ATP is depleted, then stopped with the addition of 20 μl KinaseGlo Plus (Promega Corporation) solution. The stopped reaction is incubated for 10 minutes and the remaining ATP detected via luminescence on the Victor2 (Perkin Elmer).
# Pim2 kinase = Pim2 kinase (Homo sapiens (Human), UniProt Q9P1W9); experiment: Pim2 ATP depletion assay; type: biochemical; conditions: 4 μM ATP, 10 μM BAD peptide, 5 nM PIM2
# Pim2 kinase, sequence (Q9P1W9 whole entry): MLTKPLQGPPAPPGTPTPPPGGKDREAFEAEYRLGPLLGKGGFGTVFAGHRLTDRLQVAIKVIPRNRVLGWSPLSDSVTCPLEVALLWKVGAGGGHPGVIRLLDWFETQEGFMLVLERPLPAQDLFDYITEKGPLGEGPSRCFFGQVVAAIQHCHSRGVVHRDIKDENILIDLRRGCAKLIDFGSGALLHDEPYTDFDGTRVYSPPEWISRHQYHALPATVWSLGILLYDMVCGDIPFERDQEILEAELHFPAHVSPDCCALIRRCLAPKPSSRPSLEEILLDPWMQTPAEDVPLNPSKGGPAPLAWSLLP
# Description: as §1, with “of PIM2” for “of PIM1”, “0.5 piper” for “0.5 μl per”, “of 8” for “of 40”, “are 5” for “are 2.5”, “nM PIM2, 4” for “nM PIM1, 20”, “ATP, 10” for “ATP, 40”
# [1] = test system: KMS11 (human myeloma cell line); experiment: Cell Proliferation Assay; type: cell-based; conditions: KMS-11, 72 h, KMS11 cells, 3 days, Cell Titer-Glow
# Description: KMS11 (human myeloma cell line), were cultured in IMDM supplemented with 10% FBS, sodium pyruvate and antibiotics. Cells were plated in the same medium at a density of 2000 cells per well into 96 well tissue culture plates, with outside wells vacant, on the day of assay. MM1.s (human myeloma cell line), were cultured in RPMI1640 supplemented with 10% FBS, sodium pyruvate and antibiotics. Cells were plated in the same medium at a density of 5000 cells per well into 96 well tissue culture plates, with outside wells vacant, on the day of assay.
# Test compounds supplied in DMSO were diluted into DMSO at 500 times the desired final concentrations before dilution into culture media to 2 times final concentrations. Equal volumes of 2× compounds were added to the cells in 96 well plates and incubated at 37° C. for 3 days.
# After 3 days plates were equilibrated to room temperature and equal volume of Cell Titer-Glow Reagent (Promega) was added to the culture wells. The plates were agitated briefly and luminescent signal was measured with luminometer.
# Using the procedures for Cell Proliferation Assay described above, the EC50 concentration of compounds of the previous examples were determined in KMS11 cells as shown in the following table.
# Pim3 kinase = Pim3 kinase (Homo sapiens (Human), UniProt Q86V86); experiment: Pim3 ATP depletion assay; type: biochemical; conditions: 40 μM ATP, 100 μM BAD peptide
# Description: The activity of PIM3 is measured using a luciferase-luciferin based ATP detection reagent to quantify ATP depletion resulting from kinase-catalyzed phosphoryl transfer to a peptide substrate. Compounds to be tested are dissolved in 100% DMSO and directly distributed into white 384-well plates at 0.5 piper well. […] After 15 minutes, 10 μl of 80 μM ATP in assay buffer is added. Final assay concentrations are 5 nM PIM1, 40 μM ATP, 100 μM BAD peptide and 2.5% DMSO. The reaction is performed until approximately 50% of the ATP is depleted, then stopped by the addition of 20 μl KinaseGlo Plus (Promega Corporation) solution. The stopped reaction is incubated for 10 minutes and the remaining ATP detected via luminescence on the Victor2 (Perkin Elmer).
# Pim1 kinase, sequence (P11309 whole entry): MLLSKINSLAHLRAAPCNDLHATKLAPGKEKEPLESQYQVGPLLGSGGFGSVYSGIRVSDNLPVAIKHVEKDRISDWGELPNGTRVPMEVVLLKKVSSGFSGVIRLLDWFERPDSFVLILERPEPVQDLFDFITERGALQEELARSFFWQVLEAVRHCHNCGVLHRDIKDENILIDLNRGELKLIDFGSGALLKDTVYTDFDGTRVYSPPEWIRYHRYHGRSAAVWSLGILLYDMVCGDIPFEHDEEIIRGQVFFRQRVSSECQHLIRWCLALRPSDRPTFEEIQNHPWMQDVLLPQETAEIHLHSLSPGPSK
structure (smiles),measurement,setting,value
"N[C@H]1C[C@@H](F)CN(c2ccncc2NC(=O)c2csc(-c3c(F)cccc3F)n2)C1 [Example 11, N-(4-((3S,5R)-3-amino-5-fluoropiperidin-1-yl)pyridin-3-yl)-2-(2,6-difluorophenyl)thiazole-4-carboxamide]",IC50,Pim1 kinase,4 nM
same,IC50,Pim2 kinase,55 nM
same,EC50,[1],6100 nM
same,IC50,Pim3 kinase,8 nM
"NC1CC(C(F)(F)F)CN(c2ccncc2NC(=O)c2csc(-c3c(F)cccc3F)n2)C1 (centres unmarked) [Example 15, N-(4-(3-amino-5-(trifluoromethyl)piperidin-1-yl)pyridin-3-yl)-2-(2,6-difluorophenyl)thiazole-4-carboxamide]",IC50,Pim1 kinase,1 nM
same,IC50,Pim2 kinase,3 nM
same,EC50,[1],310 nM
same,IC50,Pim3 kinase,4 nM
"NC1CC(CF)CN(c2ccncc2NC(=O)c2csc(-c3c(F)cccc3F)n2)C1 (centres unmarked) [Example 16, N-(4-(3-amino-5-(fluoromethyl)piperidin-1-yl)pyridin-3-yl)-2-(2,6-difluorophenyl)thiazole-4-carboxamide]",IC50,Pim1 kinase,1 nM
same,IC50,Pim2 kinase,3 nM
same,EC50,[1],2380 nM
same,IC50,Pim3 kinase,4 nM
"CC1CCN(c2ccncc2NC(=O)c2csc(-c3c(F)cccc3F)n2)CC1N (centres unmarked) [Example 19, N-(4-(3-amino-4-methylpiperidin-1-yl)pyridin-3-yl)-2-(2,6-difluorophenyl)thiazole-4-carboxamide]",IC50,Pim1 kinase,1 nM
same,IC50,Pim2 kinase,8 nM
same,EC50,[1],930 nM
same,IC50,Pim3 kinase,5 nM
"CCO[C@@H]1C[C@H](N)CN(c2ccncc2NC(=O)c2csc(-c3c(F)cccc3F)n2)C1 [Example 23, N-(4-((3S,5R)-3-amino-5-ethoxypiperidin-1-yl)pyridin-3-yl)-2-(2,6-difluorophenyl)thiazole-4-carboxamide]",IC50,Pim1 kinase,56 nM
same,IC50,Pim2 kinase,85 nM
same,EC50,[1],6540 nM
same,IC50,Pim3 kinase,86 nM
"N[C@H]1C[C@@H](C(F)(F)F)CN(c2ccncc2NC(=O)c2csc(-c3c(F)cccc3F)n2)C1 [Example 27, N-(4-((3S,5R)-3-amino-5-(trifluoromethyl)piperidin-1-yl)pyridin-3-yl)-2-(2,6-difluorophenyl)thiazole-4-carboxamide]",IC50,Pim1 kinase,1 nM
same,IC50,Pim2 kinase,3 nM
same,EC50,[1],460 nM
same,IC50,Pim3 kinase,3 nM
"C[C@H]1CN(c2ccncc2NC(=O)c2csc(-c3c(F)cccc3F)n2)C[C@@H](N)[C@@H]1O [Example 36, N-(4-((3R,4R,5S)-3-amino-4-hydroxy-5-methylpiperidin-1-yl)pyridin-3-yl)-2-(2,6-difluorophenyl)thiazole-4-carboxamide]",IC50,Pim1 kinase,1 nM
same,IC50,Pim2 kinase,3 nM
same,EC50,[1],560 nM
same,IC50,Pim3 kinase,3 nM
"C[C@H]1C[C@@H](c2ccncc2NC(=O)c2csc(-c3c(F)cccc3F)n2)C[C@@H](N)[C@@H]1O [Example 41, N-(4-((1R,3R,4R,5S)-3-amino-4-hydroxy-5-methylcyclohexyl)pyridin-3-yl)-2-(2,6-difluorophenyl)thiazole-4-carboxamide (and enantiomer)]",IC50,Pim1 kinase,4 nM
same,IC50,Pim2 kinase,27 nM
same,EC50,[1],> 10000 nM
same,IC50,Pim3 kinase,8 nM
